#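 The compound was tested at five concentrations on cells cultured in 96-well plates, with a 48-hour exposure period. The concentration for 50% growth inhibition is given as GI50.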 The source made the active and inactive calls. Rule as the data show it: active = GI50 up to about 1.1 µM and inactive = higher.
# Tests used:
# Assay in all cases: NCI anticancer screen, dose series, 48 h
# UO-31 = system: UO-31
# CAKI-1 = system: CAKI-1
# U-251 = system: U-251
# SK-OV-3 = system: SK-OV-3
# EKVX = system: EKVX
# COLO 205 = system: COLO 205
# HCT-116 = system: HCT-116
# K562 = system: K562
# HOP-92 = system: HOP-92
# NCI-H23 = system: NCI-H23
# A549 = system: A549
# NCI-H460 = system: NCI-H460
# OVCAR-4 = system: OVCAR-4
# NCI/ADR-RES = system: NCI/ADR-RES
# Malme-3M = system: Malme-3M
# LOX IMVI = system: LOX IMVI
# SR = system: SR
# A498 = system: A498
SMILES,GI50 (UO-31),GI50 (CAKI-1),GI50 (U-251),GI50 (SK-OV-3),GI50 (EKVX),GI50 (COLO 205),GI50 (HCT-116),GI50 (K562),GI50 (HOP-92),GI50 (NCI-H23),GI50 (A549),GI50 (NCI-H460),GI50 (OVCAR-4),GI50 (NCI/ADR-RES),GI50 (Malme-3M),GI50 (LOX IMVI),GI50 (SR),GI50 (A498)
Cc1cn(Cc2ccccc2CCl)c(=O)[nH]c1=O,11.6 µM (inactive),10.4 µM (inactive),7.94 µM (inactive),26.4 µM (inactive),16.4 µM (inactive),17.1 µM (inactive),4.53 µM (inactive),4.72 µM (inactive),25.4 µM (inactive),10.2 µM (inactive),16.9 µM (inactive),21.1 µM (inactive),34.3 µM (inactive),18.2 µM (inactive),21.3 µM (inactive),,,
O=C1C(Br)=CC2(C=C1Br)CCNC1=C2C(=O)c2ncccc2C1=O,1.07 µM (active),1.61 µM (inactive),1.31 µM (inactive),2.03 µM (inactive),1.65 µM (inactive),1.89 µM (inactive),0.634 µM (active),0.266 µM (active),1.82 µM (inactive),0.39 µM (active),1.44 µM (inactive),0.308 µM (active),1.22 µM (inactive),1.82 µM (inactive),1.09 µM (active),0.313 µM (active),0.457 µM (active),
Cc1cc(C)c(S(=O)(=O)N2CCCN(S(=O)(=O)c3c(C)cc(C)cc3C)OCCCO2)c(C)c1,> 100 µM (inactive),> 100 µM (inactive),> 100 µM (inactive),> 100 µM (inactive),> 100 µM (inactive),> 100 µM (inactive),> 100 µM (inactive),> 100 µM (inactive),47.1 µM (inactive),75.5 µM (inactive),> 100 µM (inactive),> 100 µM (inactive),79.4 µM (inactive),> 100 µM (inactive),> 100 µM (inactive),> 100 µM (inactive),,> 100 µM (inactive)
COc1ccc(C[N+]23C(CC[C@H]2c2ccccc2)CC[C@H]3c2ccccc2)cc1 (some centres not stated),31.9 µM (inactive),75.5 µM (inactive),18.6 µM (inactive),29.5 µM (inactive),15.4 µM (inactive),5.26 µM (inactive),24.5 µM (inactive),6.46 µM (inactive),9.66 µM (inactive),,31.3 µM (inactive),,13.1 µM (inactive),,11.4 µM (inactive),16.6 µM (inactive),15.7 µM (inactive),39.7 µM (inactive)
O=C(O)c1ccccc1Sc1ccccc1[N+](=O)[O-],> 100 µM (inactive),> 100 µM (inactive),> 100 µM (inactive),> 100 µM (inactive),> 100 µM (inactive),> 100 µM (inactive),> 100 µM (inactive),> 100 µM (inactive),> 100 µM (inactive),> 100 µM (inactive),> 100 µM (inactive),> 100 µM (inactive),> 100 µM (inactive),> 100 µM (inactive),> 100 µM (inactive),> 100 µM (inactive),,> 100 µM (inactive)
CC(C)CCC[C@@H](C)C1CCC2[C@@H]3CCC4CC(CCC=C(c5cc(Cl)c(OC(=O)c6ccccc6)c(C(=O)O)c5)c5cc(Cl)c(OC(=O)c6ccccc6)c(C(=O)O)c5)CC[C@]4(C)C3CC[C@@]21C (some centres not stated),> 100 µM (inactive),> 100 µM (inactive),> 100 µM (inactive),> 100 µM (inactive),88.3 µM (inactive),> 100 µM (inactive),> 100 µM (inactive),> 100 µM (inactive),28.1 µM (inactive),> 100 µM (inactive),> 100 µM (inactive),> 100 µM (inactive),> 100 µM (inactive),> 100 µM (inactive),64.7 µM (inactive),,,52.5 µM (inactive)
Cn1cc(NC(=O)Nc2cc(C(=O)Nc3cc(C(=O)Nc4cc(S(=O)(=O)O)c5cc(S(=O)(=O)O)cc(S(=O)(=O)O)c5c4)n(C)c3)n(C)c2)cc1C(=O)Nc1cc(C(=O)Nc2cc(S(=O)(=O)O)c3cc(S(=O)(=O)O)cc(S(=O)(=O)O)c3c2)n(C)c1,78.5 µM (inactive),,> 100 µM (inactive),> 100 µM (inactive),31.9 µM (inactive),> 100 µM (inactive),> 100 µM (inactive),> 100 µM (inactive),62.7 µM (inactive),> 100 µM (inactive),> 100 µM (inactive),> 100 µM (inactive),> 100 µM (inactive),> 100 µM (inactive),> 100 µM (inactive),,> 100 µM (inactive),
COc1c(C)c(C/C=C(\C)CCCCO[Si](C(C)C)(C(C)C)C(C)C)c(OC)c2ccccc12,> 100 µM (inactive),> 100 µM (inactive),> 100 µM (inactive),> 100 µM (inactive),> 100 µM (inactive),> 100 µM (inactive),> 100 µM (inactive),> 100 µM (inactive),> 100 µM (inactive),> 100 µM (inactive),> 100 µM (inactive),> 100 µM (inactive),> 100 µM (inactive),> 100 µM (inactive),,> 100 µM (inactive),70.1 µM (inactive),
O=[N+]([O-])c1ccc(/C(=N/c2ccccc2)SS/C(=N\c2ccccc2)c2ccc([N+](=O)[O-])o2)o1,1.47 µM (inactive),1.97 µM (inactive),0.955 µM (active),3.86 µM (inactive),1.77 µM (inactive),1.51 µM (inactive),1.5 µM (inactive),1.34 µM (inactive),2.93 µM (inactive),1.6 µM (inactive),1.91 µM (inactive),1.33 µM (inactive),1.47 µM (inactive),1.86 µM (inactive),2.31 µM (inactive),1.49 µM (inactive),0.425 µM (active),
CC1=C(/C=C/C(C)=C/C=C/C(C)=C/C(=O)OCC2OC(n3cc(F)c(=O)[nH]c3=O)CC2OC(=O)/C=C(C)/C=C/C=C(C)/C=C/C2=C(C)CCCC2(C)C)C(C)(C)CCC1 (configuration not stated),0.94 µM (active),0.959 µM (active),4.15 µM (inactive),30.5 µM (inactive),> 54.3 µM (inactive),18.7 µM (inactive),2.82 µM (inactive),4.66 µM (inactive),1.25 µM (inactive),10.4 µM (inactive),0.402 µM (active),0.0659 µM (active),> 32.1 µM (inactive),5.21 µM (inactive),7.43 µM (inactive),3.48 µM (inactive),0.794 µM (active),
S=c1[nH]c2ccc(Br)cc2c(=S)s1,22.1 µM (inactive),21.8 µM (inactive),22.9 µM (inactive),30 µM (inactive),27.8 µM (inactive),16.4 µM (inactive),21.5 µM (inactive),29.6 µM (inactive),16.6 µM (inactive),25.6 µM (inactive),30.6 µM (inactive),22.1 µM (inactive),10.8 µM (inactive),28.6 µM (inactive),33.3 µM (inactive),32.4 µM (inactive),38.5 µM (inactive),
CC(=O)Nc1ccc(C(=O)N[C@@H]2C(=O)N3[C@@H]2SC(C)(C)[C@@H]3C(=O)O)cn1,> 100 µM (inactive),> 100 µM (inactive),> 100 µM (inactive),> 100 µM (inactive),> 100 µM (inactive),> 100 µM (inactive),> 100 µM (inactive),> 100 µM (inactive),> 100 µM (inactive),> 100 µM (inactive),> 100 µM (inactive),> 100 µM (inactive),> 100 µM (inactive),> 100 µM (inactive),> 100 µM (inactive),> 100 µM (inactive),,> 100 µM (inactive)
N#Cc1c(-c2ccc(Cl)cc2)c(C#N)c(=O)n(NS(=O)(=O)c2ccccc2)c1-c1ccccc1,,> 25 µM (inactive),> 25 µM (inactive),> 25 µM (inactive),,> 25 µM (inactive),> 25 µM (inactive),> 25 µM (inactive),> 25 µM (inactive),,> 25 µM (inactive),> 25 µM (inactive),> 25 µM (inactive),,,> 25 µM (inactive),,> 25 µM (inactive)
O=S(=O)(Cc1ccccc1)c1nnc(S(=O)(=O)c2ccc(Cl)cc2)s1,21.3 µM (inactive),24.3 µM (inactive),33 µM (inactive),23.3 µM (inactive),25.6 µM (inactive),16 µM (inactive),19.5 µM (inactive),32.2 µM (inactive),,23.3 µM (inactive),27.5 µM (inactive),21.2 µM (inactive),24.4 µM (inactive),25 µM (inactive),,,,22 µM (inactive)
CC(=O)/C=C/CCC(=O)/C=C/C(=O)OC(CCC(=O)/C=C/C(=O)O)CC(C)=O (configuration not stated),,,> 100 µM (inactive),,> 100 µM (inactive),> 100 µM (inactive),> 100 µM (inactive),> 100 µM (inactive),> 100 µM (inactive),> 100 µM (inactive),> 100 µM (inactive),> 100 µM (inactive),> 100 µM (inactive),> 100 µM (inactive),> 100 µM (inactive),,88.9 µM (inactive),
O=C(O)CNc1ccc2c(c1)Cc1cc(Br)ccc1-2,36 µM (inactive),19.5 µM (inactive),26.6 µM (inactive),26.5 µM (inactive),5.2 µM (inactive),21.1 µM (inactive),18.5 µM (inactive),9.29 µM (inactive),25.6 µM (inactive),18 µM (inactive),21.3 µM (inactive),21.8 µM (inactive),20.1 µM (inactive),25.6 µM (inactive),20.6 µM (inactive),26.6 µM (inactive),,22 µM (inactive)

# From ChEMBL document CHEMBL1201862, “PubChem BioAssay data set” (2004)
